In patent EP4578855A1, “PROLYL HYDROXYLASE INHIBITOR AND USE THEREOF” (Suzhong Pharmaceutical Group Co., Ltd., priority 2022, dated 2024) one finds IC50 and EC50 data, which are given here for twelve molecules.

By IC50 is commonly meant the concentration needed to halve the response being measured. The term EC50 denotes the concentration that produces a half-maximal response.

Each structure is given as a SMILES string.

T1 sequence (Q9GZT9 whole entry, species assumed): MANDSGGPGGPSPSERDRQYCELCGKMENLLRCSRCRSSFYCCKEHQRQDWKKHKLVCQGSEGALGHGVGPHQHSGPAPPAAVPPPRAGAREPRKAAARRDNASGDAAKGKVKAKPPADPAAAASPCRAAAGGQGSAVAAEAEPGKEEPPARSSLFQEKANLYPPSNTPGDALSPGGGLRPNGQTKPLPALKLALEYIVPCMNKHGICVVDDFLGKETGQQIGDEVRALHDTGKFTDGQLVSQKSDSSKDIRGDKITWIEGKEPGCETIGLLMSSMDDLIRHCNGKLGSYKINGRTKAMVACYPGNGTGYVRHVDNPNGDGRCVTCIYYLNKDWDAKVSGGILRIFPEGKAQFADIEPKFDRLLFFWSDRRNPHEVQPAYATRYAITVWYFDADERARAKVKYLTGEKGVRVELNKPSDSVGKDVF

One test concerns the target T1, PHD2 enzyme (Homo sapiens, UniProt Q9GZT9).
T1 construct: purchased Active motif
In words: Detection of PHD2 enzyme activity inhibition (FITC-HIF1α tracer, mP read-out). The class given is biochemical. As to conditions: test concentration from 10 µM, diluted 3 times into 10 concentrations; read-out: IC50. The protocol: (1) A 1×Assay buffer was prepared. […] 100 nL of 100% DMSO was added into a negative control well and a positive control well respectively. (3) An enzyme solution with 2 times final concentration was prepared with the 1×Assay buffer. (4) 5 µL of the enzyme solution with 2 times final concentration was added into a compound well and the positive control well respectively. (5) 5 µL of the 1 ×Assay buffer was added into the negative control well. (6) The 384-well plate was centrifuged at 1000 rpm for 30 seconds, oscillated and mixed evenly, and then incubated for 15 minutes. (7) A tracer solution with 2 times final concentration was prepared with the 1×Assay buffer, and 5.0 µL of the tracer solution with 2 times final concentration was added to start the reaction.
As to `COc1ccc(Oc2cc(O)c(C(=O)NCC(=O)O)c3ncnn23)cc1` [Compound in Embodiment 6, (5-(p-methoxyphenoxy)-7-hydroxy-[1,2,4]triazolyl[1,5-a]pyridine-8-carbonyl)glycine], the IC50 amounted to 47.6 nM.

For the molecule `O=C(O)CNC(=O)c1c(O)cc(C=Cc2ccccc2)n2ncnc12` [Compound in Embodiment 11, [(7-hydroxy-5-(styryl)-[1,2,4]triazolo[1,5-a]pyridine-8-carbonyl)amino]acetic acid], the half-maximal inhibitory concentration (IC50) is 31.3 nM.

As to `O=C(O)CNC(=O)c1c(O)cc(Oc2ccc(Cl)cc2)n2ncnc12` [Compound in Embodiment 4, (5-(4-chlorophenoxy)-7-hydroxy-[1,2,4]triazolyl[1,5-a]pyridine-8-carbonyl)glycine], the IC50 was 33.3 nM.

Regarding `O=C(O)CNC(=O)c1c(O)cc(C#Cc2ccccc2)n2ncnc12` [Compound in Embodiment 10, [(7-hydroxy-5-(phenylethynyl)-[1,2,4]triazolo[1,5-a]pyridine-8-carbonyl)amino]acetic acid], the IC50 is 46.7 nM.

For `O=C(O)CNC(=O)c1c(O)cc(Oc2ccc(F)cc2)n2ncnc12` [Compound in Embodiment 8, (5-(4-fluorophenoxy)-7-hydroxy-[1,2,4]triazolyl[1,5-a]pyridine-8-carbonyl)glycine], the IC50 turned out to be 35.4 nM.

`Cc1ccc(Oc2cc(O)c(C(=O)NCC(=O)O)c3ncnn23)cc1` [Compound in Embodiment 5, (5-(p-tolyloxy)-7-hydroxy-[1,2,4]triazolyl[1,5-a]pyridine-8-carbonyl)glycine]: the IC50 stood at 44.1 nM.

`O=C(O)CNC(=O)c1c(O)cc(Oc2cccc(N3CCOCC3)c2)n2ncnc12` [Compound in Embodiment 7, (5-(3-morpholinphenoxy)-7-hydroxy-[1,2,4]triazolyl[1,5-a]pyridine-8-carbonyl)glycine]: the IC50 was found to be 34.1 nM.

As for `CCCOc1cc(O)c(C(=O)NCC(=O)O)c2ncnn12` [Compound in Embodiment 9, (5-(propoxy)-7-hydroxy-[1,2,4]triazolyl[1,5-a]pyridine-8-carbonyl)glycine], the IC50 is 34 nM.

On to `O=C(O)CNC(=O)c1c(O)cc(Oc2ccccc2)n2ncnc12` [Compound in Embodiment 1], for which the half-maximal inhibitory concentration (IC50) was determined as 19.8 nM.

`O=C(O)CNC(=O)c1c(O)cc(Oc2ccccc2Cl)n2ncnc12` [Compound in Embodiment 2, (5-(2-chlorophenoxy)-7-hydroxy-[1,2,4]triazolyl[1,5-a]pyridine-8-carbonyl)glycine]: the IC50 stood at 34.8 nM.

As to `O=C(O)CNC(=O)c1c(O)cc(Oc2cccc(Cl)c2)n2ncnc12` [Compound in Embodiment 3, (5-(3-chlorophenoxy)-7-hydroxy-[1,2,4]triazolyl[1,5-a]pyridine-8-carbonyl)glycine], the IC50 came to 30.2 nM.

In a further test the test system is human hepatocarcinoma cell line Hep3B. In words: In-vitro erythropoietin (EPO)-inducing activity experiment (EPO ELISA, OD450). The class given is cell-based. As to conditions: Homo sapiens, Hep3B, 24 h, Hep3B cells, incubated 24 hours at 37°C. The procedure:
In-vitro erythropoietin (EPO)-inducing activities of the compounds in Embodiments 10 to 12 were evaluated by using a human hepatocarcinoma cell line Hep3B (ATCC). Hep3B cells were cultured in an EMEM medium (Eagle's Minimum Essential Medium) at 37°C in the presence of 10% fetal bovine serum (FBS). Experimental steps were as follows: • (1) Cell preparation: the cells were inoculated in a 96-well plate, and cell plating was carried out according to an amount of 100 µL per well based on 2*10~4 per well. • (2) Preparation of compound concentration gradient: 100 µM, 20 µM, 2-parallel well detection. A solution with 200 times final concentration was prepared in a 96-well plate, the compound was diluted 200/3 times by using a cell culture medium, and then 50 µL of the compound was sucked for drug administration to the cells. 50 µL of DMSO-containing culture solution was added into a negative control well to make a final concentration contain 5 ‰ DMSO, and 50 µL of positive compound with the highest concentration was added into a positive control well to incubate the cells at 37°C for 24 hours. • (3) The reaction plate was washed twice with 1X Wash Buffer according to about 400 µL per well. • (4) 100 µL of diluted standard (comprising a standard blank control) was added into an appropriate well. • (5) 50 µL of sample and 50 µL of Sample Diluent were added into a sample well. • (6) 50 µL of 1X Biotin Conjugated Antibody were added into all wells to incubate the cells at room temperature for 1 hour. • (7) The reaction plate was washed with 1X Wash Buffer for 6 times according to about 400 µL per well. • (8) 100 µL of 1X Streptavidin-HRP was added in to each well to incubate the cells at room temperature for 15 minutes. • (9) The reaction plate was washed with 1X Wash Buffer for 6 times according to about 400 µL per well. • (10) 100 µL of TMB Substrate Solution was added into each well to incubate the cells at room temperature for 10 minutes. • (11) 100 µL of Stop Solution was added into each well. • (12) OD450 was read by EnSight.
The EPO-inducing activities of the compounds were expressed as the concentration for 50% of maximal effect (EC50).
In general terms: ELISA stands for enzyme-linked immunosorbent assay.
Take `O=C(O)CNC(=O)c1c(O)cc(C=Cc2ccccc2)n2ncnc12` [Compound in Embodiment 11, [(7-hydroxy-5-(styryl)-[1,2,4]triazolo[1,5-a]pyridine-8-carbonyl)amino]acetic acid]: the EC50 is 1.79 µM.

`O=C(O)CNC(=O)c1c(O)cc(C#Cc2ccccc2)n2ncnc12` [Compound in Embodiment 10, [(7-hydroxy-5-(phenylethynyl)-[1,2,4]triazolo[1,5-a]pyridine-8-carbonyl)amino]acetic acid] came in with an EC50 of 6.46 µM.

Consider `Cc1nc(C(=O)NCC(=O)O)c(O)c2ccc(Oc3ccccc3)cc12` [FG-4592, Roxadustat, reference compound], for which the EC50 came out at 13.8 µM.
